Measurements published in ChEMBL document CHEMBL5335830, “Unusual Sesquiterpenes from Streptomyces olindensis DAUFPE 5622” (J Nat Prod, 2024).
Activity calls are given as the source filed them.

Key:
Candida albicans = experiment: Antifungal activity against Candida albicans; type: functional, organism-based
[1] = test system: Colon adenocarcinoma cell line; experiment: Cytotoxicity against human Colon adenocarcinoma cells; type: functional, cell-based
Bacillus subtilis = experiment: Antimicrobial activity against Bacillus subtilis; type: functional, organism-based
Escherichia coli = experiment: Antimicrobial activity against Escherichia coli; type: functional, organism-based

Measured: Activity

CC1=CC(=O)C[C@H]2[C@@H](C)[C@@](C)(CO)CC[C@]12C
inactive: all assays above
